The NIST ThermoML archive (doi:10.1021/je1008747)
± gives the expanded uncertainty stated by the source.

Conditions: Liquid

CCCCn1cc[n+](C)c1.[Cl-] [1-butyl-3-methylimidazolium chloride]
Conditions | mass density [kg/m3]
348.15 K, 101.33 kPa | 1055.7 ± 2.4
352.1 K, 100 kPa | 1054 ± 2
352.1 K, 10000 kPa | 1058 ± 2
352.1 K, 20000 kPa | 1062 ± 2
352.1 K, 30000 kPa | 1067 ± 2
352.1 K, 40000 kPa | 1071 ± 2
352.1 K, 50000 kPa | 1074 ± 3
352.1 K, 60000 kPa | 1078 ± 3
352.1 K, 70000 kPa | 1082 ± 3
352.1 K, 80000 kPa | 1085 ± 3
352.1 K, 90000 kPa | 1089 ± 3
352.1 K, 100000 kPa | 1093 ± 3
352.1 K, 110000 kPa | 1096 ± 3
352.1 K, 120000 kPa | 1099 ± 3
352.1 K, 130000 kPa | 1102 ± 3
352.1 K, 140000 kPa | 1106 ± 3
352.1 K, 150000 kPa | 1109 ± 3
352.1 K, 160000 kPa | 1112 ± 3
352.1 K, 170000 kPa | 1115 ± 3
352.1 K, 180000 kPa | 1118 ± 3
352.1 K, 190000 kPa | 1121 ± 4
352.1 K, 200000 kPa | 1124 ± 4
353.15 K, 101.33 kPa | 1053 ± 2.4
358.15 K, 101.33 kPa | 1050.4 ± 2.4
363.15 K, 101.33 kPa | 1047.7 ± 2.4
368.15 K, 101.33 kPa | 1045.1 ± 2.4
372.4 K, 10000 kPa | 1046 ± 2
372.4 K, 20000 kPa | 1050 ± 2
372.4 K, 30000 kPa | 1055 ± 2
372.4 K, 40000 kPa | 1059 ± 2
372.4 K, 50000 kPa | 1063 ± 2
372.4 K, 60000 kPa | 1067 ± 3
372.4 K, 70000 kPa | 1071 ± 3
372.4 K, 80000 kPa | 1074 ± 3
372.4 K, 90000 kPa | 1078 ± 3
372.4 K, 100000 kPa | 1081 ± 3
372.4 K, 110000 kPa | 1085 ± 3
372.4 K, 120000 kPa | 1088 ± 3
372.4 K, 130000 kPa | 1092 ± 3
372.4 K, 140000 kPa | 1095 ± 3
372.4 K, 150000 kPa | 1099 ± 3
372.4 K, 160000 kPa | 1102 ± 3
372.4 K, 170000 kPa | 1105 ± 3
372.4 K, 180000 kPa | 1108 ± 3
372.4 K, 190000 kPa | 1111 ± 3
372.4 K, 200000 kPa | 1115 ± 4
373.15 K, 101.33 kPa | 1042.6 ± 2.4
392.3 K, 10000 kPa | 1034 ± 2
392.3 K, 20000 kPa | 1038 ± 2
392.3 K, 30000 kPa | 1043 ± 2
392.3 K, 40000 kPa | 1047 ± 2
392.3 K, 50000 kPa | 1052 ± 2
392.3 K, 60000 kPa | 1056 ± 2
392.3 K, 70000 kPa | 1059 ± 3
392.3 K, 80000 kPa | 1063 ± 3
392.3 K, 90000 kPa | 1067 ± 3
392.3 K, 100000 kPa | 1071 ± 3
392.3 K, 110000 kPa | 1075 ± 3
392.3 K, 120000 kPa | 1078 ± 3
392.3 K, 130000 kPa | 1081 ± 3
392.3 K, 140000 kPa | 1085 ± 3
392.3 K, 150000 kPa | 1088 ± 3
392.3 K, 160000 kPa | 1092 ± 3
392.3 K, 170000 kPa | 1095 ± 3
392.3 K, 180000 kPa | 1099 ± 3
392.3 K, 190000 kPa | 1102 ± 3
392.3 K, 200000 kPa | 1105 ± 3
412.3 K, 10000 kPa | 1022 ± 2
412.3 K, 20000 kPa | 1027 ± 2
412.3 K, 30000 kPa | 1032 ± 2
412.3 K, 40000 kPa | 1036 ± 2
412.3 K, 50000 kPa | 1041 ± 2
412.3 K, 60000 kPa | 1045 ± 2
412.3 K, 70000 kPa | 1049 ± 2
412.3 K, 80000 kPa | 1053 ± 2
412.3 K, 90000 kPa | 1057 ± 3
412.3 K, 100000 kPa | 1061 ± 3
412.3 K, 110000 kPa | 1064 ± 3
412.3 K, 120000 kPa | 1068 ± 3
412.3 K, 130000 kPa | 1072 ± 3
412.3 K, 140000 kPa | 1076 ± 3
412.3 K, 150000 kPa | 1079 ± 3
412.3 K, 160000 kPa | 1082 ± 3
412.3 K, 170000 kPa | 1086 ± 3
412.3 K, 180000 kPa | 1089 ± 3
412.3 K, 190000 kPa | 1092 ± 3
412.3 K, 200000 kPa | 1096 ± 3
432.2 K, 10000 kPa | 1011 ± 2
432.2 K, 20000 kPa | 1016 ± 2
432.2 K, 30000 kPa | 1021 ± 2
432.2 K, 40000 kPa | 1026 ± 2
432.2 K, 50000 kPa | 1030 ± 2
432.2 K, 60000 kPa | 1035 ± 2
432.2 K, 70000 kPa | 1039 ± 2
432.2 K, 80000 kPa | 1043 ± 2
432.2 K, 90000 kPa | 1047 ± 2
432.2 K, 100000 kPa | 1051 ± 3
432.2 K, 110000 kPa | 1055 ± 3
432.2 K, 120000 kPa | 1059 ± 3
432.2 K, 130000 kPa | 1062 ± 3
432.2 K, 140000 kPa | 1066 ± 3
432.2 K, 150000 kPa | 1069 ± 3
432.2 K, 160000 kPa | 1073 ± 3
432.2 K, 170000 kPa | 1076 ± 3
432.2 K, 180000 kPa | 1080 ± 3
432.2 K, 190000 kPa | 1083 ± 3
432.2 K, 200000 kPa | 1087 ± 3
452 K, 10000 kPa | 1000 ± 2
452 K, 20000 kPa | 1005 ± 2
452 K, 30000 kPa | 1010 ± 2
452 K, 40000 kPa | 1015 ± 2
452 K, 50000 kPa | 1020 ± 2
452 K, 60000 kPa | 1024 ± 2
452 K, 70000 kPa | 1028 ± 2
452 K, 80000 kPa | 1032 ± 2
452 K, 90000 kPa | 1037 ± 2
452 K, 100000 kPa | 1041 ± 2
452 K, 110000 kPa | 1045 ± 3
452 K, 120000 kPa | 1048 ± 3
452 K, 130000 kPa | 1052 ± 3
452 K, 140000 kPa | 1056 ± 3
452 K, 150000 kPa | 1060 ± 3
452 K, 160000 kPa | 1063 ± 3
452 K, 170000 kPa | 1067 ± 3
452 K, 180000 kPa | 1070 ± 3
452 K, 190000 kPa | 1074 ± 3
452 K, 200000 kPa | 1077 ± 3
